Laboratory results reported in patent publication US20220411448A1, “CHROMENE-4-ONE DERIVATIVES AS BRAIN-DERIVED NEUROTROPHIC FACTOR (BDNF) MIMETICS” (FLORATEK PHARMA AG, priority 2019, published 2022).

Assays:
astrocytes cultures = assay: ROS formation (H2DCF-DA kit); type: cell-based, mouse; details: various concentrations, 2 h
Experimental: ROS formation has been determined as described [Yang J et al, Lactate promotes plasticity gene expression by potentiating NMDA signalling in neurons. Proc Natl Acad Sci USA. 2014. 111(33):12228-33] using a H2DCF-DA kit (ThermoFisher) as recommended by the manufacturer. Briefly, astrocytes cultures were washed twice with HBSS and incubated for 60 min in 50 μM in HBSS at 37° C. and 5% CO2 in the presence of the dye. After two washing steps with prewarmed HBSS the cells were treated with increasing concentrations of 100 μL Compound A at 37° C. and 5% CO2. Fluorescence intensity was measured after 2 h from the same plate using a fluorescence microplate reader (Safire 2; Tecan) at an excitation wavelength of 485 nm and an emission wavelength of 528 nm.
To assess the effect of Compound A on ROS accumulation in primary neuron cultures, the cells were treated with various concentration of Compound A for 2 hours and ROS was measured as described (FIG. 4).

[1] = system: organotypic hippocampal brain slices with IAA lesion; assay: Organotypic brain slices, iodoacetic acid injury: cell survival (MTT); type: cell-based, mouse; details: SND118 10 and 30 μM; SND124 30 μM; 7,8 DHF 10 μm; IAA 250 μM for 110 min
Experimental: Preparation of the organotypic brain slices were performed by decapitation of the P9/P10 mouse pups, removing skin and skull and immersing brains in slicing medium (Opti-MEM 1, […]). Brains were hemisected and hippocampi were isolated. Hippocampi were placed on the cutting disc of a McIlwain Tissue Chopper. […] hippocampal slices were chopped transversely. A number of 4 slices per hippocampus were placed on porous (0.4 μM) transparent membrane inserts (Millipore) and incubated for 1 h on ice in HBSS containing 10 mM glucose. Afterwards inserts were transferred to fresh 24-well plates containing 250-300 μl culture medium (50% MEM/EBSS, 25% horse serum, 25% CMF-HBSS, 25 mM glucose, 0.5% pen/strep). Slices were maintained at 37° C. and 5% CO2.
On DV15, brain slices were pretreated with SND derivatives test compounds and the reference 7,8DHF at various concentrations (between […]) for 30 min, followed by the addition of iodoacetic acid (IAA) at 250 μM for 110 min, when cell survival, MMP and toxicity were measured.
Cell survival was measured by the MTT assay. For the determination of mitochondrial membrane potential, treated organotypic brain slices were loaded with the mitochondrial fluorescent dye, tetramethylrhodamine methyl ester (TMRM) at a final concentration of 100 nM in PBS and incubated for 45 min at 37° C. The TMRM containing solution was aspirated and slices were transferred into new well plates containing the appropriate amount of PBS. Fluorescence was measured with a plate-reader (Cytation 5) using wavelengths of excitation and emission of 548 and 574 nm, respectively (area scan). Values were calculated as percent of control values (vehicle control). Toxicity of the treatment was measured by LDH. No toxicity was observed.

[2] = Metabolic stability in mouse plasma; type: in vitro ADME, CD1-mouse; details: 1 μM
Experimental: The compounds were incubated with plasma, and the collected samples were analyzed by UPLC/HR-MS to measure stability of the compounds.
Sample type: plasma; Species: CD1-mouse (male), human (mixed gender); Time points: 0, 20, 40, 60, 120 min;
Spiking solvent: 50% DMSO ( 1/100 to incubation); Quenching solvent: 2-fold volume of 100% ACN; Control: propanthelin bromide (human, mouse)
The study compounds were incubated with plasma as specified above. The collected samples were stored at −20 C until thawed at room temperature, centrifuged and analyzed using UPLC/PDA with high resolution mass spectrometry (QE-Orbitrap-MS on DDI mode) to monitor substrate depletion and metabolite formation. The analytical method was optimised by using the parent compounds for optimum chromatographic properties (peak shape and retention) and mass spectrometric ionisation. Disappearance was based on relative LC/MS peak areas (0 min=100%) and will be used to calculate half-lives.

Astrocytes = assay: Cellular ATP/ADP ratio (luciferase, CellTiter-Glo); type: cell-based, mouse
Experimental: ATP content was measured enzymatically as previously described [Lambert H P et al, Control of Mitochondrial pH by Uncoupling Protein 4 in Astrocytes Promotes Neuronal Survival, 2014 The Journal of Biological Chemistry 289, 31014-31028] using a luciferase assay, the CellTiter-Glo Luminescent cell viability assay (Promega). Astrocytes grown on multiplate of 48 wells were rinsed and incubated 1 h at 37° C. in an atmosphere containing 5% CO2 and 95% air in DMEM (D5030; Sigma-Aldrich) containing 44 mm NaHCO3 and 2 mm glucose. At the end of the incubation, medium was removed, and 200 μl of Tricine buffer solution (40 mm Tricine, 3 mm EDTA, 85 mm NaCl, 3.6 mm KCl, 100 mm NaF, and 0.1% saponin (84510; Sigma-Aldrich), pH 7.4) was put in each well. Cells were lysed by saponin effect and by pipetting. Each sample was divided for ATP measure and for ATP+ADP measure. 90-μl aliquots were distributed in a black-walled 96-well type microplates (PerkinElmer Life Sciences). […] Finally, 100 μl of CellTiter-Glo reagent (G7571; Promega) was added, and luminescence was immediately detected with a luminometer (Safire 2; Tecan). Luminescence was measured in a kinetic way determined by 20 readings at intervals of 1 min. Luminescence read at the plateau were taken to calculate the ATP/ADP ratio. […]

T1/2 plasma Mouse [2]: 13.2 h
production of ATP (Astrocytes; 100 nM, 30 min): increased production of ATP
ATP/ADP ratio (Astrocytes; various doses): trended higher at most doses
SMILES: O=c1cc(-c2ccc(CCCC[P+](c3ccccc3)(c3ccccc3)c3ccccc3)cc2)oc2c(O)c(O)ccc12 [SND118, 4-[4-(7,8-dihydroxy-4-oxo-chromen-2-yl)phenyl]butyltriphenylphosphonium bromide]
ROS accumulation (astrocytes cultures): decrease in ROS accumulation
cell survival upon IAA lesion (MTT) [1]: statistically increase cell survival
